The text below walks through data of ChEMBL document CHEMBL1158551, “Click reaction synthesis of carbohydrate derivatives from ristocetin aglycon with antibacterial and antiviral activity” (Bioorg Med Chem Lett, 2010).

≈ marks a conversion by molar mass, not a printed value. Calls of active or inactive are those of the source. No cut-off for these calls is given here. A value given as a limit tells only on which side of the number the result lay.

Assay [1] deals with Staphylococcus aureus. The experiment in a line: Antibacterial activity against methicillin-[…] Staphylococcus aureus ATCC 33591 by broth microdilution method. The assay is classed as functional. (In broth dilution the organism is exposed to a series of concentrations in liquid medium.)
The subject of assay [2] is Staphylococcus epidermidis. The experiment in a line: Antibacterial activity against Staphylococcus epidermidis by broth microdilution method. It counts as functional.
Assay [3] concerns Influenza A virus. Description: Antiviral activity against influenza A virus H1N1 assessed as inhibition of viral induced cytopathic effect. It counts as functional, organism-based.
In assay [4] the test system is Influenza A virus. The experiment in a line: Antiviral activity against Influenza A virus H3N2 assessed as cell viability by cell based MTS assay. The assay is classed as functional, organism-based.
Assay [5] concerns Platelet. Description: Inhibition of ristocetin-induced platelet aggregation at 0.1 mg/ml. It counts as functional, cell-based.
The subject of assay [6] is Staphylococcus epidermidis. The experiment in a line: Antibacterial activity against biofilm positive Staphylococcus epidermidis ATCC 35984. The assay is classed as functional.
Assay [7] concerns Enterococcus faecalis. The experiment in a line: Antibacterial activity against vancomycin-resistant and teicoplanin-sensitive Enterococcus faecalis ATCC 5129 expressing VanB gene by broth microdilution method. It counts as functional.
Assay [8] has as its system Influenza A virus. The experiment in a line: Antiviral activity against influenza A virus H1N1 assessed as cell viability by cell based MTS assay. It counts as functional, organism-based. On the technique in general: Formazan colour is commonly taken as a measure of viable cells.
The subject of assay [9] is Enterococcus faecalis. The experiment in a line: Antibacterial activity against vancomycin and teicoplanin-sensitive Enterococcus faecalis ATCC 29212 by broth microdilution method. The assay is classed as functional.
Assay [10] has as its system Influenza B virus. Description: Antiviral activity against influenza B virus assessed as inhibition of viral induced cytopathic effect. The assay is classed as functional, organism-based.
Assay [11] relates to Enterococcus faecalis. Description: Antibacterial activity against vancomycin and teicoplanin-resistant Enterococcus faecalis 15376 expressing VanA gene by broth microdilution method. The assay is classed as functional.
For assay [12], the system named is Influenza B virus. The experiment in a line: Antiviral activity against influenza B virus assessed as cell viability by cell based MTS assay. It counts as functional, organism-based.
The subject of assay [13] is Staphylococcus aureus. Description: Antibacterial activity against methicillin-[…] Staphylococcus aureus ATCC 29213 by broth microdilution method. The assay is classed as functional.
The test system of assay [14] is Bacillus subtilis. Description: Antibacterial activity against Bacillus subtilis ATCC 6633 by broth microdilution method. It counts as functional.
The subject of assay [15] is Influenza A virus. Description: Antiviral activity against Influenza A virus H3N2 assessed as inhibition of viral induced cytopathic effect. The assay is classed as functional, organism-based.

As to `COC(=O)[C@@H]1NC(=O)[C@H]2NC(=O)[C@H](NC(=O)[C@@H]3NC(=O)[C@H]4NC(=O)[C@H](NC(=O)[C@H](n5cc(CO[C@H]6O[C@H](CO)[C@@H](O)[C@H](O)[C@@H]6O)nn5)c5ccc(O)c(c5)Oc5cc4cc(O)c5C)[C@H](O)c4ccc(cc4)Oc4cc3cc(c4O)Oc3ccc(cc3)[C@H]2O)c2ccc(O)c(c2)-c2c(O)cc(O)cc21`, the MBC amounted to 16 µg/mL (≈ 11.3 µM) in assay [1]; 8 µg/mL (≈ 5.64 µM) in assay [2]; 8 µg/mL (≈ 5.64 µM) in assay [6]; 256 µg/mL (≈ 180 µM) in [7]; 256 µg/mL (≈ 180 µM) in assay [9]; 64 µg/mL (≈ 45.1 µM) in [11]. In addition, the MBC in [14] is 4 µg/mL (≈ 2.82 µM). The MIC in assay [1] came to 4 µg/mL (≈ 2.82 µM); in [2] it was 4 µg/mL (≈ 2.82 µM); in [6], 4 µg/mL (≈ 2.82 µM); in assay [7], 16 µg/mL (≈ 11.3 µM); in [9], 8 µg/mL (≈ 5.64 µM); in assay [11], 16 µg/mL (≈ 11.3 µM). Besides, the values for the MIC in assay [13] and in assay [14] were 2 µg/mL (≈ 1.41 µM) and 4 µg/mL (≈ 2.82 µM), respectively. The EC50 was 10 µM in [3]; ≥ 46 µM in [4]; 22 µM in assay [8]; ≥ 45 µM in [10]; ≥ 50 µM in [12]; ≥ 45 µM in assay [15]. In addition, in assay [5], the inhibition result is “inactive”.
Take `COC(=O)[C@@H]1NC(=O)[C@H]2NC(=O)[C@H](NC(=O)[C@@H]3NC(=O)[C@H]4NC(=O)[C@H](NC(=O)[C@H](n5cc(CO[C@@H]6O[C@@H](C)[C@H](OC(C)=O)[C@@H](OC(C)=O)[C@H]6OC(C)=O)nn5)c5ccc(O)c(c5)Oc5cc4cc(O)c5C)[C@H](O)c4ccc(cc4)Oc4cc3cc(c4O)Oc3ccc(cc3)[C@H]2O)c2ccc(O)c(c2)-c2c(O)cc(O)cc21`: the MBC in [1] came to 32 µg/mL (≈ 20.9 µM); in assay [2], 8 µg/mL (≈ 5.23 µM); in assay [6], 4 µg/mL (≈ 2.62 µM); in assay [7] it was 256 µg/mL (≈ 167 µM); in assay [9] it was 256 µg/mL (≈ 167 µM); in assay [11], 256 µg/mL (≈ 167 µM). In addition, the MBC in assay [13] and in assay [14] was 32 µg/mL (≈ 20.9 µM) in each case. For the same compound, the MIC in assay [1] was determined as 16 µg/mL (≈ 10.5 µM); in assay [2] it was 4 µg/mL (≈ 2.62 µM); in assay [6], 4 µg/mL (≈ 2.62 µM); in [7], 128 µg/mL (≈ 83.7 µM); in [9] it was 32 µg/mL (≈ 20.9 µM); in [11] it was 16 µg/mL (≈ 10.5 µM). In addition, the MIC in assay [13] is 16 µg/mL (≈ 10.5 µM); in assay [14], 32 µg/mL (≈ 20.9 µM). Moreover, the EC50 in assay [3], in [4], in assay [8], in assay [10], in assay [12] and in [15] was > 100 µM each time.
With `COC(=O)[C@@H]1NC(=O)[C@H]2NC(=O)[C@H](NC(=O)[C@@H]3NC(=O)[C@H]4NC(=O)[C@H](NC(=O)[C@H](n5cc(CO[C@H]6O[C@H](CO)[C@@H](O)[C@H](O)[C@H]6O)nn5)c5ccc(O)c(c5)Oc5cc4cc(O)c5C)[C@H](O)c4ccc(cc4)Oc4cc3cc(c4O)Oc3ccc(cc3)[C@H]2O)c2ccc(O)c(c2)-c2c(O)cc(O)cc21`, the MBC in assay [1] was 128 µg/mL (≈ 90.2 µM); in [2], 4 µg/mL (≈ 2.82 µM); in assay [6], 4 µg/mL (≈ 2.82 µM); in assay [7], 256 µg/mL (≈ 180 µM); in assay [9], 256 µg/mL (≈ 180 µM); in [11], 256 µg/mL (≈ 180 µM). For the same compound, the figures for the MBC in assay [13] and in assay [14] were 256 µg/mL (≈ 180 µM) and 8 µg/mL (≈ 5.64 µM), respectively. For the same compound, the MIC was 2 µg/mL (≈ 1.41 µM) in assay [1]; 4 µg/mL (≈ 2.82 µM) in assay [2]; 2 µg/mL (≈ 1.41 µM) in assay [6]; 8 µg/mL (≈ 5.64 µM) in [7]; 4 µg/mL (≈ 2.82 µM) in [9]; 4 µg/mL (≈ 2.82 µM) in assay [11]. The MIC in assay [13] and in assay [14] was 2 µg/mL (≈ 1.41 µM) in each case. Moreover, the EC50 in [3] was 14 µM; in assay [4], ≥ 30 µM; in [8], 16 µM; in [10], 32 µM; in assay [12] it was 33 µM; in assay [15] it was ≥ 45 µM. For the same compound, in assay [5], the inhibition result was “Active”.

One may read the EC50 as the concentration that produces a half-maximal response.
